Key:
in vitro = details: African green monkey
DENV-2 16681 strain = assay: DENV-2 antiviral assay (eGFP fluorescence); format: cell-based, Dengue virus; details: DENV-2 16681 eGFP, Vero cells, MOI 0.5, 3 days
Procedure: The antiviral activity of all the compounds of the invention was tested against the DENV-2 16681 strain which was labeled with enhanced green fluorescent protein (eGPF). The culture medium consists of minimal essential medium supplemented with 2% of heat-inactivated fetal calf serum, 0.04% gentamycin (50 mg/mL) and 2 mM of L-glutamine. Vero cells, obtained from ECACC, were suspended in culture medium and 25 μL was added to 384-well plates (2500 cells/well), which already contain the antiviral compounds. Typically, these plates contain a 5-fold serial dilution of 9 dilution steps of the test compound at 200 times the final concentration in 100% DMSO (200 nL). […] Finally, each plate contains wells which are assigned as virus controls (containing cells and virus in the absence of compound), cell controls (containing cells in the absence of virus and compound) and medium controls (containing medium in the absence of cells, virus and compounds). To the wells assigned as medium control, 25 μL of culture medium was added instead of Vero cells. Once the cells were added to the plates, the plates were incubated for 30 minutes at room temperature to allow the cells to distribute evenly within the wells. Next, the plates were incubated in a fully humidified incubator (37° C., 5% CO2) until the next day. Then, DENV-2 strain 16681, labeled with eGFP, was added at a multiplicity of infection (MOI) of 0.5. Therefore, 15 μL of virus suspension was added to all the wells containing test compound and to the wells assigned as virus control. In parallel, 15 μL of culture medium was added to the medium and cell controls. Next, the plates were incubated for 3 days in a fully humidified incubator (37° C., 5% CO2). At the day of the read out, the eGFP fluorescence was measured using an automated fluorescence microscope at 488 nm (blue laser). Using an in-house LIMS system, inhibition dose response curves for each compound were calculated and the half maximal effective concentration (EC50) was determined. Therefore, the percent inhibition (I) for every test concentration is calculated using the following formula: I=100*(ST-SCC)/(SVC-SCC); ST, SCC and SVC are the amount of eGFP signal in the test compound, cell control and virus control wells, respectively. The EC50, represents the concentration of a compound at which the virus replication is inhibited with 50%, as measured by a 50% reduction of the eGFP fluorescent intensity compared to the virus control. The EC50 is calculated using linear interpolation (Table 1).

Vero cells = details: African green monkey
[1] = Dengue virus, DENV2, Vero, 72 h

SMILES: COc1cc(NC(C(=O)N2CCc3ccc(C(F)(F)F)cc32)c2ccc(F)cc2)cc(OCCCC(=O)O)c1 (racemic) [Compound 1, 4-(3-((1-(4-fluorophenyl)-2-oxo-2-(6-(trifluoromethyl)-indolin-1-yl)ethyl)amino)-5-methoxyphenoxy)butanoic acid]
- CC50 (in vitro): > 25000 nM
- EC50 (DENV-2 16681 strain; [1]): 2.1 nM

SMILES: COc1cc(NC(C(=O)N2CCc3ccc(OC(F)(F)F)cc32)c2ccc(F)cc2)cc(OCCCC(=O)O)c1 (racemic) [Compound 2, 4-(3-((1-(4-fluorophenyl)-2-oxo-2-(6-(trifluoromethoxy)indolin-1-yl)ethyl)amino)-5-methoxyphenoxy)butanoic acid]
- CC50 (in vitro): 12000 nM
- EC50 (DENV-2 16681 strain; [1]): 0.55 nM

SMILES: COc1cc(NC(C(=O)N2CCc3ccc(OC(F)(F)F)cc32)c2ccc(Cl)cc2)cc(OCCCC(=O)O)c1 (racemic) [Compound 4, 4-(3-((1-(4-chlorophenyl)-2-oxo-2-(6-(trifluoromethoxy)indolin-1-yl)ethyl)amino)-5-methoxyphenoxy)butanoic acid]
- CC50 (in vitro): 10000 nM
- EC50 (DENV-2 16681 strain; [1]): 0.15 nM

SMILES: COc1cc(NC(C(=O)N2CCc3cc(OC)c(C(F)(F)F)cc32)c2ccc(Cl)cc2)cc(OCCCC(=O)O)c1 (racemic) [Compound 5, 4-(3-((1-(4-chlorophenyl)-2-(5-methoxy-6-(trifluoromethyl)indolin-1-yl)-2-oxoethyl)amino)-5-methoxyphenoxy)butanoic Acid]
- CC50 (in vitro): 13000 nM
- EC50 (DENV-2 16681 strain; [1]): 0.62 nM

SMILES: COc1cc(NC(C(=O)N2CCc3ccc(C(F)(F)F)cc32)c2ccc(Cl)cc2OC)cc(OCCCC(=O)O)c1 (racemic) [Compound 6, 4-(3-((1-(4-chloro-2-methoxyphenyl)-2-oxo-2-(6-(trifluoro-methyl)indolin-1-yl)ethyl)amino)-5-methoxyphenoxy)butanoic acid]
- CC50 (in vitro): 12000 nM
- EC50 (DENV-2 16681 strain; [1]): 0.31 nM

SMILES: COc1cc(NC(C(=O)N2CCc3cc(OC)c(C(F)(F)F)cc32)c2ccc(Cl)cc2OC)cc(OCCCC(=O)O)c1 (racemic) [Compound 7, 4-(3-((1-(4-chloro-2-methoxyphenyl)-2-(5-methoxy-6-(trifluoromethyl)indolin-1-yl)-2-oxoethyl)amino)-5-methoxyphenoxy)butanoic acid]
- CC50 (in vitro): 12000 nM
- EC50 (DENV-2 16681 strain; [1]): 0.47 nM

SMILES: COc1cc(NC(C(=O)N2CCc3ccc(OC(F)(F)F)cc32)c2ccc(Cl)cc2OC)cc(OCCCC(=O)O)c1 (racemic) [Compound 8, 4-(3-((1-(4-chloro-2-methoxyphenyl)-2-oxo-2-(6-(trifluoro-methoxy)indolin-1-yl)ethyl)amino)-5-methoxyphenoxy)butanoic acid]
- CC50 (in vitro): 12000 nM
- EC50 (DENV-2 16681 strain; [1]): 0.13 nM

SMILES: COc1cc(NC(C(=O)N2CCc3ccc(C(F)(F)F)cc32)c2ccc(Cl)cc2F)cc(OCCCC(=O)O)c1 (racemic) [Compound 9, 4-(3-((1-(4-chloro-2-fluorophenyl)-2-oxo-2-(6-(trifluoromethyl)indolin-1-yl)ethyl)amino)-5-methoxy-phenoxy)butanoic acid]
- CC50 (in vitro): 11000 nM
- EC50 (DENV-2 16681 strain; [1]): 0.96 nM

SMILES: COc1cc(NC(C(=O)N2CCc3ccc(OC(F)(F)F)cc32)c2ccc(Cl)cc2F)cc(OCCCC(=O)O)c1 (racemic) [Compound 10, 4-(3-((1-(4-chloro-2-fluorophenyl)-2-oxo-2-(6-(trifluoromethoxy)indolin-1-yl)ethyl)amino)-5-methoxy-phenoxy)butanoic acid]
- CC50 (in vitro): 10000 nM
- EC50 (DENV-2 16681 strain; [1]): 0.24 nM

SMILES: COc1cc(NC(C(=O)N2CCc3cc(OC)c(C(F)(F)F)cc32)c2ccc(Cl)cc2F)cc(OCCCC(=O)O)c1 (racemic) [Compound 11, 4-(3-((1-(4-chloro-2-fluorophenyl)-2-(5-methoxy-6-(trifluoromethyl)indolin-1-yl)-2-oxoethyl)amino)-5-methoxyphenoxy)butanoic acid]
- CC50 (in vitro): 11000 nM
- EC50 (DENV-2 16681 strain; [1]): 0.66 nM

SMILES: COc1cc(NC(C(=O)N2CCc3cc(OC)c(OC(F)(F)F)cc32)c2ccc(Cl)cc2)cc(OCCCC(=O)O)c1 (racemic) [Compound 12, 4-(3-((1-(4-chlorophenyl)-2-(5-methoxy-6-(trifluoro-methoxy)indolin-1-yl)-2-oxoethyl)amino)-5-methoxyphenoxy)butanoic acid]
- CC50 (in vitro): 12000 nM
- EC50 (DENV-2 16681 strain; [1]): 0.73 nM

SMILES: COc1cc(NC(C(=O)N2CCc3ccc(C(F)(F)F)cc32)c2ccc(F)cc2)cc(OCCCC(=O)O)c1 (single isomer, unassigned) [Compound 1A]
- CC50 (in vitro): > 25000 nM
- EC50 (DENV-2 16681 strain): 180 nM

SMILES: COc1cc(NC(C(=O)N2CCc3ccc(OC(F)(F)F)cc32)c2ccc(F)cc2)cc(OCCCC(=O)O)c1 (single isomer, unassigned) [Compound 2A]
- CC50 (in vitro): 14000 nM
- EC50 (DENV-2 16681 strain): 56 nM

SMILES: COc1cc(NC(C(=O)N2CCc3ccc(C(F)(F)F)cc32)c2ccc(Cl)cc2)cc(OCCCC(=O)O)c1 (single isomer, unassigned) [Compound 3A]
- CC50 (in vitro): 11000 nM
- EC50 (DENV-2 16681 strain): 3.9 nM

SMILES: COc1cc(NC(C(=O)N2CCc3ccc(OC(F)(F)F)cc32)c2ccc(Cl)cc2)cc(OCCCC(=O)O)c1 (single isomer, unassigned) [Compound 4A]
- CC50 (in vitro): 10000 nM
- EC50 (DENV-2 16681 strain): 31 nM

SMILES: COc1cc(NC(C(=O)N2CCc3cc(OC)c(C(F)(F)F)cc32)c2ccc(Cl)cc2)cc(OCCCC(=O)O)c1 (single isomer, unassigned) [Compound 5A]
- CC50 (in vitro): 12000 nM
- EC50 (DENV-2 16681 strain): 19 nM

SMILES: COc1cc(NC(C(=O)N2CCc3ccc(C(F)(F)F)cc32)c2ccc(Cl)cc2OC)cc(OCCCC(=O)O)c1 (single isomer, unassigned) [Compound 6A]
- CC50 (in vitro): 12000 nM
- EC50 (DENV-2 16681 strain): 23 nM

SMILES: COc1cc(NC(C(=O)N2CCc3cc(OC)c(C(F)(F)F)cc32)c2ccc(Cl)cc2OC)cc(OCCCC(=O)O)c1 (single isomer, unassigned) [Compound 7A]
- CC50 (in vitro): 12000 nM
- EC50 (DENV-2 16681 strain): 24 nM

SMILES: COc1cc(NC(C(=O)N2CCc3ccc(OC(F)(F)F)cc32)c2ccc(Cl)cc2OC)cc(OCCCC(=O)O)c1 (single isomer, unassigned) [Compound 8A]
- CC50 (in vitro): 12000 nM
- EC50 (DENV-2 16681 strain): 280 nM

SMILES: COc1cc(NC(C(=O)N2CCc3ccc(C(F)(F)F)cc32)c2ccc(Cl)cc2F)cc(OCCCC(=O)O)c1 (single isomer, unassigned) [Compound 9A]
- CC50 (in vitro): 12000 nM
- EC50 (DENV-2 16681 strain): 31 nM

SMILES: COc1cc(NC(C(=O)N2CCc3ccc(OC(F)(F)F)cc32)c2ccc(Cl)cc2F)cc(OCCCC(=O)O)c1 (single isomer, unassigned) [Compound 10B]
- CC50 (Vero cells): 8800 nM
- EC50 (DENV-2 16681 strain): 5.5 nM

SMILES: COc1cc(NC(C(=O)N2CCc3cc(OC)c(C(F)(F)F)cc32)c2ccc(Cl)cc2F)cc(OCCCC(=O)O)c1 (single isomer, unassigned) [Compound 11A]
- CC50 (in vitro): 12000 nM
- EC50 (DENV-2 16681 strain): 15 nM

SMILES: COc1cc(NC(C(=O)N2CCc3cc(OC)c(OC(F)(F)F)cc32)c2ccc(Cl)cc2)cc(OCCCC(=O)O)c1 (single isomer, unassigned) [Compound 12A]
- CC50 (in vitro): 12000 nM
- EC50 (DENV-2 16681 strain): 380 nM

From US10689340B2, “Substituted indoline derivatives as dengue viral replication inhibitors” (priority 2016, dated 2020)
